In publication PMC12670164, “In vitro and clinical data demonstrate negligible risk of drug–drug interactions with opelconazole, a novel inhaled antifungal agent” (Journal of Antimicrobial Chemotherapy, 2025):

Columns and labels:
[1] = design: method as in PMID 33340279; settings: available PK data, cited from earlier work
OATP1B3 = target: T1, OATP1B3 (Homo sapiens, UniProt Q9NPD5); assay: Transporter inhibition; format: in vitro ADME; settings: 0.5 and 5 μM tested
T1 construct: expressed in transfected cells
T1 sequence (Q9NPD5 1-702): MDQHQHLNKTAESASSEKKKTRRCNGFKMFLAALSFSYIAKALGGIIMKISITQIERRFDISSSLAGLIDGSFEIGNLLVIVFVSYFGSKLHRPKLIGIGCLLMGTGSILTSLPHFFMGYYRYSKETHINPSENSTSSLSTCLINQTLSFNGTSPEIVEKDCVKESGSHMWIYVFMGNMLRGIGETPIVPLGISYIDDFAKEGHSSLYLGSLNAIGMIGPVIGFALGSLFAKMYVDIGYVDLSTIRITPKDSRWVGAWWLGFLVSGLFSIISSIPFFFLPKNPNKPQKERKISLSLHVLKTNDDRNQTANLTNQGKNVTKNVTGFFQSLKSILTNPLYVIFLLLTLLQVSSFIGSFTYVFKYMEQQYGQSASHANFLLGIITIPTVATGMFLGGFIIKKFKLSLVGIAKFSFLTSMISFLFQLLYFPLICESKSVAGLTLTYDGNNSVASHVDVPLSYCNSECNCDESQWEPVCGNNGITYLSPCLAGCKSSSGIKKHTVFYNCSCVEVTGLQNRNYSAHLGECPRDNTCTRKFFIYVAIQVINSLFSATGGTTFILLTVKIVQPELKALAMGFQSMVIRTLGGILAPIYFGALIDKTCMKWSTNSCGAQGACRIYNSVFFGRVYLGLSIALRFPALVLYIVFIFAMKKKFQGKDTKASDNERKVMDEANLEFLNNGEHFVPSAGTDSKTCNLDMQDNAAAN
Method: (§1) Human transporter protein interactions with opelconazole as a potential substrate and/or inhibitor were assessed for the following key carrier transporters: organic anion transporters, OAT1 and OAT3; organic cation transporters, OCT1 and OCT2; OATP1B1 and OATP1B3; multidrug and toxin extrusion, MATE-1 and MATE2-K; key ATP-binding cassette (ABC) transporters including P-gp, breast cancer resistance protein (BCRP) and bile salt export pump (BSEP). Two concentrations of opelconazole, 0.5 and 5 μM, were tested using MDCKII cells, human embryonic kidney 293 cells and BSEP-transfected sf9 membrane vesicles and then analysed by LC-tandem MS to determine transporter inhibition and whether opelconazole was a transporter substrate. The viability of experimental test systems was confirmed with controls and known probe substrates and probe inhibitors.

OCT1 = target: T2, OCT1 (Homo sapiens, UniProt O15245); assay: Transporter inhibition; format: in vitro ADME; settings: 0.5 and 5 μM tested
T2 construct: expressed in transfected cells
T2 sequence (O15245 1-554): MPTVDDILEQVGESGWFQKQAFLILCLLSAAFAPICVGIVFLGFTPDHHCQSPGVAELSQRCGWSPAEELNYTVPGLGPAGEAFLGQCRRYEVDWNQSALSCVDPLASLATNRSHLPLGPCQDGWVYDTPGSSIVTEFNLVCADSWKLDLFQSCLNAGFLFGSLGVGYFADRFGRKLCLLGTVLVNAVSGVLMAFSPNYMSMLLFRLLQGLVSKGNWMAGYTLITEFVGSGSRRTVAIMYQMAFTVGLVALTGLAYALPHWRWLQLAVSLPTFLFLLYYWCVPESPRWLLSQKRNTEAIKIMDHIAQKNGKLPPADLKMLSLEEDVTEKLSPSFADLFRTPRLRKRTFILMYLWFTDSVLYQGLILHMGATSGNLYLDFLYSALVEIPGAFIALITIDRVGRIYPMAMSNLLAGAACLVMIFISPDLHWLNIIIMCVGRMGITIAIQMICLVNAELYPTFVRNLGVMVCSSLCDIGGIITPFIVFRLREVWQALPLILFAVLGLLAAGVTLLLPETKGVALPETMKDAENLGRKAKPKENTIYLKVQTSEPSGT
Method: as §1

BSEP = target: T3, BSEP (Homo sapiens, UniProt O95342); assay: Transporter inhibition; format: in vitro ADME; settings: 0.5 and 5 μM tested
T3 construct: expressed in transfected cells; host or cells: Sf9 membrane vesicles
T3 sequence (O95342 whole entry): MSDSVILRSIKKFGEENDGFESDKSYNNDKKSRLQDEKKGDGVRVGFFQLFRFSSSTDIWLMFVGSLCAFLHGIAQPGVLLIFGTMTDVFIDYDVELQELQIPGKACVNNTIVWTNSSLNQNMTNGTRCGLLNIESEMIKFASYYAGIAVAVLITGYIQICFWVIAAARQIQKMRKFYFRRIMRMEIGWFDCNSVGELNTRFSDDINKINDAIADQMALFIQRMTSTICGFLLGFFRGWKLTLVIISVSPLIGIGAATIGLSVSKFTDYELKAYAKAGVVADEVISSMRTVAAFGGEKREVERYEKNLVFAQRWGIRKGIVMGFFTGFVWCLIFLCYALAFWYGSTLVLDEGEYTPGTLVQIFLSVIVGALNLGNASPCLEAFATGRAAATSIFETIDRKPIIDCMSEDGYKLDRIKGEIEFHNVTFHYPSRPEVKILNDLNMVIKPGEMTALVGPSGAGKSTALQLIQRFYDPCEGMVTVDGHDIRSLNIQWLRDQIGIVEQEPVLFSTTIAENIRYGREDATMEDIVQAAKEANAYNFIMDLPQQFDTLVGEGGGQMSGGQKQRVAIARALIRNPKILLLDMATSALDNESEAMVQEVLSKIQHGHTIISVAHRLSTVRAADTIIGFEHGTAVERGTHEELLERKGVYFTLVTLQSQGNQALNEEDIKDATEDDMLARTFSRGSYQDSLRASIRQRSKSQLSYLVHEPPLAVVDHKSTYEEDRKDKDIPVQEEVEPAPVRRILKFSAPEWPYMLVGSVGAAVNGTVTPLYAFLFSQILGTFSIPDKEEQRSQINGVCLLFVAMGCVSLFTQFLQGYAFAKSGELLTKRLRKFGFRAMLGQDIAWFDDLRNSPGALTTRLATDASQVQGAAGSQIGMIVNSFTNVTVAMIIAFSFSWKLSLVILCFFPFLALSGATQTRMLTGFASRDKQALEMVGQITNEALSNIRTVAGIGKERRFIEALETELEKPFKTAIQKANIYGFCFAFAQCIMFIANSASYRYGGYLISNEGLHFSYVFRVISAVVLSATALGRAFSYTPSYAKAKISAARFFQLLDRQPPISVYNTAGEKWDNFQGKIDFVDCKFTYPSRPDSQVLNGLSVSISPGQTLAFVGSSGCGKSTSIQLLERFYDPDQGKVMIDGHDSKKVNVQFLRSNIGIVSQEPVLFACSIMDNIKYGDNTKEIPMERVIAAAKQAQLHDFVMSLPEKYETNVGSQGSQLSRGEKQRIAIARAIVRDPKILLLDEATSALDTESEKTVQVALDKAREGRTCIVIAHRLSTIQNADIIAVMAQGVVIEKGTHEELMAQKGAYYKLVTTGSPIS
Method: as §1

OCT2 = target: T4, OCT2 (Homo sapiens, UniProt O15244); assay: Transporter inhibition; format: in vitro ADME
T4 construct: expressed in transfected cells
T4 sequence (O15244 1-555): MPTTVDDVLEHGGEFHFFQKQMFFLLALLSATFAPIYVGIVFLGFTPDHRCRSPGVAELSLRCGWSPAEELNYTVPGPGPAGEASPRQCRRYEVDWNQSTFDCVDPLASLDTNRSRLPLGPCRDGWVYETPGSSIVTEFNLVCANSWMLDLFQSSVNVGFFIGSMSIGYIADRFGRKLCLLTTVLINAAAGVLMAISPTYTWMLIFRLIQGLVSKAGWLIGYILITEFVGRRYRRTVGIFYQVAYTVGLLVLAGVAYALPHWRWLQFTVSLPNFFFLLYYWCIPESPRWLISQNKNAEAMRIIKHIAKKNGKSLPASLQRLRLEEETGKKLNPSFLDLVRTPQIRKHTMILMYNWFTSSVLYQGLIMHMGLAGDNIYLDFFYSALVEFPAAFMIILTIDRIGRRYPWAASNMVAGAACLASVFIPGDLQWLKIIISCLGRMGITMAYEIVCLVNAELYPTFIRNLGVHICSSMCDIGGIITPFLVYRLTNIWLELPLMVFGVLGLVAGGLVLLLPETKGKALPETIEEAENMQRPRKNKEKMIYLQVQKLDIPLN
Method: as §1

OAT1 = target: T5, OAT1 (Homo sapiens, UniProt Q4U2R8); assay: Transporter inhibition; format: in vitro ADME; settings: 0.5 and 5 μM tested
T5 construct: expressed in transfected cells
T5 sequence (Q4U2R8 1-563): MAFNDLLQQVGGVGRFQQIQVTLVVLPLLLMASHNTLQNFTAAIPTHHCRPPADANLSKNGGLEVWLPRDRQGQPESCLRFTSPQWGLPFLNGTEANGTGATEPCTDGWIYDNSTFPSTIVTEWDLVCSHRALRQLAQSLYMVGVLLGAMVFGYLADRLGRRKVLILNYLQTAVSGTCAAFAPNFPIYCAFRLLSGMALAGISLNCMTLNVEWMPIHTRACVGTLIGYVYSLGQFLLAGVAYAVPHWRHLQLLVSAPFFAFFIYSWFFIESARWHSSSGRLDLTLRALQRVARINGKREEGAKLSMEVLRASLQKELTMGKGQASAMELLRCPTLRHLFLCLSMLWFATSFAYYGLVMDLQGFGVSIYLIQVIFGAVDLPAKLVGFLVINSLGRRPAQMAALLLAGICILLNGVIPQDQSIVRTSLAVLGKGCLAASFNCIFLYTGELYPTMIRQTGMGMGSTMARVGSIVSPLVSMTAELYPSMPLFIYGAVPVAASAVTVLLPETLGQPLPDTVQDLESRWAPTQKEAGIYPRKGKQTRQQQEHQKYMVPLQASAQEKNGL
Method: as §1

[2] = system: Aspergillus fumigatus clinical strains; design: method as in PMID 33340279; settings: cited from earlier work

SMILES: Cc1cc(N2CCN(c3ccc(C(=O)Nc4ccc(F)cc4)cc3)CC2)ccc1OC[C@@H]1CO[C@@](Cn2cncn2)(c2ccc(F)cc2F)C1 [opelconazole]
- Cmax (low systemic exposure) [1]: 1 ng/mL
- Cmax ([1]; read-out: Cmax (low systemic exposure)): 1.6 nM
- inhibitory interaction with OATP1B3 (OATP1B3): negligible inhibitory interactions
- inhibitory interaction with OCT1 (OCT1): negligible inhibitory interactions
- inhibitory interaction with BSEP (BSEP): negligible inhibitory interactions
- inhibitory interaction with OCT2 (OCT2; 0.5 μM opelconazole): negligible inhibitory interactions
- inhibition of OCT2 relative to solvent control (OCT2; 5 μM opelconazole): 39%
- inhibitory interaction with OAT1 (OAT1): negligible inhibitory interactions
- minimal inhibitory concentration required to inhibit 90% of clinical strains [2]: 1 µg/mL
